Laboratory results: patent publication US20250066344A1 (BRISTOL-MYERS SQUIBB COMPANY, priority 2021, published 2025)

Each molecule was assayed against T1, human RXFP1 (Homo sapiens, UniProt Q9HBX9) (assay: RXFP1 cyclic adenosine monophosphate (cAMP) assay, hRXFP1 HEK293). Settings: HEK293 cells stably expressing human RXFP1; 30 min at room temperature; HTRF cAMP.
T1 construct: expressed in transfected cells
T1 sequence (Q9HBX9 1-757): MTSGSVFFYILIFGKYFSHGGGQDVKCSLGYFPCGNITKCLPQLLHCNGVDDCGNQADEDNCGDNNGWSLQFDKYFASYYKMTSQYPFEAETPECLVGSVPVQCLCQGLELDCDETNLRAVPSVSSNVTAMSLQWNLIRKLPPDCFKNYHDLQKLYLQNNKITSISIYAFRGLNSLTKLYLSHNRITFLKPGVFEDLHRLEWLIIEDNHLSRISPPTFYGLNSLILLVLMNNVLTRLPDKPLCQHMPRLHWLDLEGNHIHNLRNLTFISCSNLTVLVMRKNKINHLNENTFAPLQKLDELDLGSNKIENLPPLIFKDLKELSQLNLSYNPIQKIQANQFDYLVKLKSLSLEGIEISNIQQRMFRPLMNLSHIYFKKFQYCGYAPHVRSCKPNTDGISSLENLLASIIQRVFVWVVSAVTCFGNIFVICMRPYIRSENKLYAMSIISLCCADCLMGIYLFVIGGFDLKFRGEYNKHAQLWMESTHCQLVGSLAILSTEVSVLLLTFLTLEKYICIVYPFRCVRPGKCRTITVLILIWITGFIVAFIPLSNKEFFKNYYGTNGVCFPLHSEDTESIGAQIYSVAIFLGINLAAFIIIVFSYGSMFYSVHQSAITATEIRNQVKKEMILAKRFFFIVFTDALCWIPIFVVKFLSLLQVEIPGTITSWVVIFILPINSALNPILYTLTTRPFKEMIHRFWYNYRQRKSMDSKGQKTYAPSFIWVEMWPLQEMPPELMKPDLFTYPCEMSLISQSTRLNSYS
Format: cell-based
Protocol: RXFP1 Cyclic Adenosine Monophosphate (cAMP) Assays. Human embryonic kidney cells 293 (HEK293) cells and HEK293 cells stably expressing human RXFP1, were cultured in MEM medium supplemented with 10% qualified FBS, and 300 μg/ml hygromycin (Life Technologies). Cells were dissociated and suspended in assay buffer. The assay buffer was HBSS buffer (with calcium and magnesium) containing 20 mM HEPES, 0.05% BSA, and 0.5 mM IBMX. Cells (3000 cells per well, except 1500 cell per well for HEK293 cells stably expressing human RXFP1) were added to 384-well Proxiplates (Perkin-Elmer). Cells were immediately treated with test compounds in DMSO (2% final) at final concentrations in the range of 0.010 nM to 50 μM. Cells were incubated for 30 min at room temperature. The level of intracellular cAMP was determined using the HTRF HiRange cAMP assay reagent kit (Cisbio) according to manufacturer's instructions. Solutions of cryptate conjugated anti-cAMP and d2 fluorophore-labelled cAMP were made in a supplied lysis buffer separately. Upon completion of the reaction, the cells were lysed with equal volume of the d2-cAMP solution and anti-cAMP solution. After a 1 h room temperature incubation, time-resolved fluorescence intensity was measured using the Envision (Perkin-Elmer) at 400 nm excitation and dual emission at 590 nm and 665 nm. A calibration curve was constructed with an external cAMP standard at concentrations ranging from 2.7 μM to 0.1 μM by plotting the fluorescent intensity ratio from 665 nm emission to the intensity from the 590 nm emission against cAMP concentrations. The potency and activity of a compound to […] cAMP production was then determined by fitting to a 4-parametric logistic equation from a plot of cAMP level versus compound concentrations.
The examples disclosed below were tested in the human RXFP1 (hRXFP) HEK293 cAMP assay described above and found to have agonist activity. Tables 1-3, lists EC50 values in the hRXFP1 HEK293 cAMP assay measured for the examples.
Table A lists EC50 values in the hRXFP1 HEK293 cAMP assay measured for the examples.
With `COc1ccc(C2=NOC3CC(O)CC23)cc1C(=O)Nc1cc2nc(C)sc2cc1C(=O)Nc1ccc(F)c(C(F)(F)F)c1` (single isomer, unassigned) [Example 8, N-(4-fluoro-3-(trifluorometh-yl)phenyl)-5-(5-(5-hydroxy-3a,5,6,6a-tetra-hydro-4H-cyclopenta[d]isoxazol-3-yl)-2-methoxy-benzamido)-2-methylbenzo [d]thiazole-6-carboxamide] the EC50 was 40 nM. Work on `COc1ccc(C2CCNC2)cc1C(=O)Nc1cc2c(cc1C(=O)Nc1ccc(F)c(C(F)(F)F)c1)OC(F)(F)O2` (single isomer, unassigned) [Example 54, 2,2-difluoro-N-(4-fluoro-3-(trifluoromethyl)phenyl)-6-(2-methoxy-5-(pyrrolidin-3-yl)benzamido)benzo[d] [1,3]dioxole-5-carboxamide] yielded an EC50 of 683 nM. With `COc1ccc(C2=NOC3CC(CO)CC23)cc1C(=O)Nc1cc2c(cc1C(=O)Nc1ccc(F)c(C(F)(F)F)c1)OC(F)(F)O2` (centres unmarked) [Example 98] the EC50 was 1.3 nM. Work on `COc1ccc(-c2cnc3n2CCN(C2COC2)C3)cc1C(=O)Nc1cc2c(cc1C(=O)Nc1ccc(F)c(C(F)(F)F)c1)OC(F)(F)O2` [Example 81, 2,2-difluoro-N-(4-fluoro-3-(trifluoromethyl)phenyl)-6-(2-methoxy-5-(7-(oxetan-3-yl)-5,6,7,8-tetrahydroimidazo[1,2-a]pyrazin-3-yl)benzamido)benzo[d] [1,3]dioxole-5-carboxamide] yielded an EC50 of 282 nM. `COc1ccc(-c2nc3c(s2)CN(CC(N)=O)CC3)cc1C(=O)Nc1cc2c(cc1C(=O)Nc1ccc(F)c(C(F)(F)F)c1)OC(F)(F)O2` [Example 53, 6-(5-(5-(2-amino-2-oxoethyl)-4,5,6,7-tetrahydrothiazolo[5,4-c]pyridin-2-yl)-2-methoxybenzamido)-2,2-difluoro-N-(4-fluoro-3-(trifluoromethyl)phenyl)benzo[d][1,3]dioxole-5-carboxamide] gave an EC50 of 33 nM. `COc1ccc(C(=O)N(C)CCS(C)(=O)=O)cc1C(=O)Nc1cc2c(cc1C(=O)Nc1ccc(F)c(C(F)(F)F)c1)OC(F)(F)O2` [Example 41] showed an EC50 of 562 nM. Work on `COc1ccc(C2=NOC3COCC23)cc1C(=O)Nc1cc2c(cc1C(=O)Nc1ccc(F)c(C(F)(F)F)c1)OC(F)(F)O2` (centres unmarked) [Example 79] yielded an EC50 of 275 nM. `COc1ccc(C#CC(C)(C)O)cc1C(=O)Nc1cc2c(C)noc2cc1C(=O)Nc1ccc(F)c(C(F)(F)F)c1` [Example 34, N-(4-fluoro-3-(trifluoromethyl)phenyl)-5-(5-(3-hydroxy-3-methylbut-1-yn-1-yl)-2-methoxybenzamido)-methylbenzo[d]isoxazole-6-carboxamide] gave an EC50 of 1340 nM. Molecule `COc1ccc(C2=NOC3CC(CO)CC23)cc1C(=O)Nc1cc2nc(C)sc2cc1C(=O)NC1CCCC1` (centres unmarked) [Example 19, N-cyclopent-yl-5-(5-(5-(hydroxymeth-yl)-3a,5,6,6a-tetrahydro-4H-cyclopenta[d]isoxazol-3-yl)-2-methoxy-benzamido)-2-methylbenzo [d]thiazole-6-carboxamide] has an EC50 of 1000 nM. Work on `COc1ccc(C2=NOC(C(C)(C)O)C2)cc1C(=O)Nc1cc2c(cc1C(=O)Nc1ccc(F)c(C(F)(F)F)c1)OC(F)(F)O2` (single isomer, unassigned) [Example 76, 2,2-difluoro-N-(4-fluoro-3-(trifluoromethyl)phenyl)-6-(5-(5-(2-hydroxypropan-2-yl)-4,5-dihydroisoxazol-3-yl)-2-methoxybenzamido) benzo[d][1,3]dioxole-5-carboxamide] yielded an EC50 of 258 nM. For `COc1ccc(N2CC(CO)CC2=O)cc1C(=O)Nc1cc2nc(C)sc2cc1C(=O)Nc1ccc(F)c(C(F)(F)F)c1` (centres unmarked) [Example 13, N-(4-fluoro-3-(trifluorometh-yl)phenyl)-5-(5-(4-(hy-droxymethyl)-2-oxopyrroli-din-1-yl)-2-methoxybenz-amido)-2-methylbenzo [d]thiazole-6-carboxamide], the EC50 was 540 nM. `COc1ccc(-c2cc(C(=O)Nc3cc[nH]n3)ccc2F)cc1C(=O)Nc1cc2c(cc1C(=O)Nc1ccc(F)c(C(F)(F)F)c1)OC(F)(F)O2` [Example 48] gave an EC50 of 196 nM. `COc1ccc(C2=NOC3(CCNCC3)C2)cc1C(=O)Nc1cc2c(cc1C(=O)Nc1ccc(F)c(C(F)(F)F)c1)OC(F)(F)O2` [Example 67, 2,2-difluoro-N-(4-fluoro-3-(trifluoromethyl)phenyl)-6-(2-methoxy-5-(1-oxa-2,8-diazaspiro[4.5]dec-2-en-3-yl)benzamido)benzo[d] [1,3]dioxole-5-carboxamide] gave an EC50 of 309 nM. `COc1ccc(C(=O)N2CCCC(CO)C2)cc1C(=O)Nc1cc2c(cc1C(=O)Nc1ccc(F)c(C(F)(F)F)c1)OC(F)(F)O2` (centres unmarked) [Example 37, 2,2-difluoro-N-(4-fluoro-3-(trifluoromethyl)phenyl)-6-(5-(3-(hydroxymethyl)piperidine-1-carbonyl)-2-methoxybenzamido) benzo[d][1,3]dioxole-5-carboxamide] showed an EC50 of 56 nM. `COc1ccc(C(=O)N2CC(C)(O)C2)cc1C(=O)Nc1cc2c(cc1C(=O)Nc1ccc(F)c(C(F)(F)F)c1)OC(F)(F)O2` [Example 39, 2,2-difluoro-N-(4-fluoro-3-(trifluoromethyl)phenyl)-6-(5-(3-hydroxy-3-methylazetidine-1-carbonyl)-2-methoxybenzamido) benzo[d][1,3]dioxole-5-carboxamide] showed an EC50 of 90 nM. For `COc1ccc(C2=NOC3(CCNC3)C2)cc1C(=O)Nc1cc2c(cc1C(=O)Nc1ccc(F)c(C(F)(F)F)c1)OC(F)(F)O2` (centres unmarked) [Example 66, 2,2-difluoro-N-(4-fluoro-3-(trifluoromethyl)phenyl)-6-(2-methoxy-5-(1-oxa-2,7-diazaspiro[4.4]non-2-en-3-yl)benzamido)benzo[d] [1,3]dioxole-5-carboxamide], the EC50 was 338 nM. `COc1ccc(C2=NOC3CS(=O)(=O)CC23)cc1C(=O)Nc1cc2nc(C)sc2cc1C(=O)Nc1ccc(F)c(C(F)(F)F)c1` (centres unmarked) [Example 6, 5-(5-(5,5-diox-ido-3a,4,6,6a-tetrahydro-thieno[3,4-d]isoxazol-3-yl)-2-methoxy-benzamido)-N-(4-fluoro-3-(trifluorometh-yl)phenyl)-2-methylbenzo [d]thiazole-6-carboxamide] showed an EC50 of 28 nM. In the case of `COc1ccc(C2=NOC3CN(CC(C)(C)O)CC23)cc1C(=O)Nc1cc2c(cc1C(=O)Nc1ccc(F)c(C(F)(F)F)c1)OC(F)(F)O2` (centres unmarked) [Example 45, 2,2-difluoro-N-(4-fluoro-3-(trifluoromethyl)phenyl)-6-(5-(5-(2-hydroxy-2-methylpropyl)-3a,5,6,6a-tetrahydro-4H-pyrrolo[3,4-d]isoxazol-3-yl)-2-methoxybenzamido)benzo[d][1,3]dioxole-5-carboxamide], the EC50 is reported as 6 nM. `COc1ccc(C2=NOC3CC(NC(=O)CO)CC23)cc1C(=O)Nc1cc2c(cc1C(=O)Nc1ccc(F)c(C(F)(F)F)c1)OC(F)(F)O2` (centres unmarked) [Example 51, 2,2-difluoro-N-(4-fluoro-3-(trifluoromethyl)phenyl)-6-(5-(5-(2-hydroxyacetamido)-3a,5,6,6a-tetrahydro-4H-cyclopenta[d]isoxazol-3-yl)-2-methoxybenzamido)benzo[d][1,3]dioxole-5-carboxamide] gave an EC50 of 21 nM. For `COc1ccc(C2=NOC3CS(=O)(=O)CC23)cc1C(=O)Nc1cc2c(cc1C(=O)Nc1ccc(F)c(C(F)(F)F)c1)OC(F)(F)O2` (centres unmarked) [Example 65, 6-(5-(5,5-dioxido-3a,4,6,6a-tetrahydrothieno[3,4-d]isoxazol-3-yl)-2-methoxybenzamido)-2,2-difluoro-N-(4-fluoro-3-(trifluoromethyl)phenyl) benzo[d][1,3]dioxole-5-carboxamide], the EC50 was 285 nM.
